Assay results: patent publication US4698352A, “4-oxo-1,4-dihydronicotinic acid derivatives, salts thereof, and antibacterial agents containing the same” (Toyama Chemical Co., Ltd., priority 1982, dated 1987)
≈ marks a conversion by molar mass, not a printed value. Like-named read-outs stand apart in the source and are kept apart here.

Key:
Test in all cases: Antibacterial activity (MIC), agar dilution
Type in all cases: cell-based
[1] = tested on: St. aureus F-137*; conditions: Staphylococcus aureus, 20 h
Excerpt: (§1) The amount of bacteria inoculated was 10^4 cells per plate (10^6 cells per ml).
(§2) * Penicillinase-producing bacteria

[2] = tested on: Ps. aeruginosa GN3379*; conditions: Pseudomonas aeruginosa, Ps. aeruginosa GN3379, penicillinase-producing, 10^6 cells per ml
Excerpt: as §1, §2

[3] = tested on: Kl. pneumoniae Y-4*; conditions: Klebsiella pneumoniae, 20 h, Kl. pneumoniae Y-4, penicillinase-producing; 10^6 cells per ml; read-out: MIC
Excerpt: as §1, §2

[4] = tested on: E. coli TK-3*; conditions: Escherichia coli, 20 h
Excerpt: as §1, §2

[5] = tested on: E. coli GN5482**; conditions: Escherichia coli, 20 h; E. coli GN5482, cephalospolinase-producing; 10^6 cells per ml; read-out: MIC
Excerpt: as §1
(§3) ** Cephalospolinase-producing bacteria

[6] = tested on: Pro. vulgaris GN76**; conditions: Proteus vulgaris
Excerpt: as §1, §3

[7] = tested on: Ps. aeruginosa GN918**; conditions: Pseudomonas aeruginosa, Ps. aeruginosa GN918, cephalospolinase-producing, 10^6 cells per ml
Excerpt: as §1, §3

[8] = tested on: E. coli NIHJ JC-2; conditions: Escherichia coli, NIHJJC2, 20 h
Excerpt: as §1

[9] = tested on: Ps. aeruginosa S-68; conditions: Pseudomonas aeruginosa
Excerpt: as §1

[10] = tested on: Ent. cloacae IID977; conditions: Enterobacter cloacae, IID977, 20 h
Excerpt: as §1

[11] = tested on: Pro. mirabilis T-111; conditions: Proteus mirabilis, 37° C.
Excerpt: as §1

[12] = tested on: E. coli TK-111; conditions: Escherichia coli, TK111, 20 h, E. coli TK-111; 10^6 cells per ml; 37° C., 20 hours; read-out: MIC
Excerpt: as §1

[13] = tested on: Ps. aeruginosa IFO3445; conditions: Pseudomonas aeruginosa; Ps. aeruginosa IFO3445; 10^6 cells per ml; 37° C., 20 hours; read-out: MIC
Excerpt: as §1

[14] = tested on: Kl. pneumoniae Y-41; conditions: Klebsiella pneumoniae, Y41, 10^6 cells per ml, 37° C., 20 hours, read-out: MIC
Excerpt: as §1

[15] = tested on: Pro. vulgaris GN3027; conditions: Proteus vulgaris, GN3027, 20 h, Pro. vulgaris GN3027; 10^6 cells per ml; 37° C., 20 hours; read-out: MIC
Excerpt: as §1

[16] = tested on: Aci. antitratus A-6; conditions: 20 h, Aci. antitratus A-6; 10^6 cells per ml; 37° C., 20 hours; read-out: MIC
Excerpt: as §1

[17] = tested on: St. aureus FDA209P; conditions: Staphylococcus aureus, FDA209P, 20 h
Excerpt: as §1

[18] = tested on: Pro. morganii T-216; conditions: Morganella morganii, 37° C.
Excerpt: as §1

[19] = tested on: Kl. pneumoniae Y-50; conditions: Klebsiella pneumoniae, Y50, 20 h, 10^6 cells per ml, 37° C., read-out: MIC
Excerpt: as §1

[20] = St. aureus F-137, penicillinase-producing, 10^6 cells per ml, read-out: MIC
[21] = E. coli NIHJ JC-2, 10^6 cells per ml, 37° C., 20 hours, read-out: MIC
[22] = St. aureus FDA209P, 10^6 cells per ml, 37° C., 20 hours, read-out: MIC
[23] = E. coli TK-3, penicillinase-producing, 10^6 cells per ml, read-out: MIC
[24] = 20 h, Pro. vulgaris GN76, cephalospolinase-producing, 10^6 cells per ml, read-out: MIC
[25] = Ent. cloacae IID977, 10^6 cells per ml, 37° C., 20 hours, read-out: MIC
[26] = S68, Ps. aeruginosa S-68, 10^6 cells per ml, 37° C., 20 hours, read-out: MIC
[27] = T216, 10^6 cells per ml, 20 hours, read-out: MIC
[28] = T111, 10^6 cells per ml, 20 hours, read-out: MIC

Compound | MIC [1, 20] | MIC ([2]; 20 h, read-out: MIC) | MIC [3] | MIC [5] | MIC [8, 21] | MIC ([9]; S68, 20 h) | MIC ([11]; T111, 20 h, 10^6 cells per ml) | MIC [12] | MIC [13] | MIC [14] | MIC [15] | MIC [16] | MIC [17, 22] | MIC ([18]; T216, 20 h, 10^6 cells per ml) | MIC [19] | MIC [4, 23] | MIC [6, 24] | MIC ([7]; 20 h, read-out: MIC) | MIC [10, 25] | MIC [18, 27] | also measured
CN1CCCc2cc(-c3cc(=O)c(C(=O)O)cn3-c3ccc(O)cc3)ccc21 | 0.2 µg/mL (≈ 0.531 µM) | 12.5 µg/mL (≈ 33.2 µM) | 6.25 µg/mL (≈ 16.6 µM) | ≤ 0.05 µg/mL | 0.39 µg/mL (≈ 1.04 µM) | 6.25 µg/mL (≈ 16.6 µM) | 3.13 µg/mL (≈ 8.32 µM) | 0.2 µg/mL (≈ 0.531 µM) | 12.5 µg/mL (≈ 33.2 µM) | 3.13 µg/mL (≈ 8.32 µM) | 0.78 µg/mL (≈ 2.07 µM) | 0.39 µg/mL (≈ 1.04 µM) | 0.39 µg/mL (≈ 1.04 µM) | 3.13 µg/mL (≈ 8.32 µM) | 1.56 µg/mL (≈ 4.14 µM) |  |  |  |  |  | MIC [4]: 1.56 µg/mL (≈ 4.14 µM); MIC ([6]; GN76, 20 h): 1.56 µg/mL (≈ 4.14 µM); MIC ([7]; GN918, 20 h): 3.13 µg/mL (≈ 8.32 µM); MIC [10]: 1.56 µg/mL (≈ 4.14 µM)
Cc1nc(-c2ccc(-c3cc(=O)c(C(=O)O)cn3-c3ccc(F)cc3)cc2)co1 | 0.39 µg/mL (≈ 0.999 µM) | 25 µg/mL (≈ 64 µM) | 12.5 µg/mL (≈ 32 µM) | 0.2 µg/mL (≈ 0.512 µM) | 0.78 µg/mL (≈ 2 µM) | 12.5 µg/mL (≈ 32 µM) | 6.25 µg/mL (≈ 16 µM) | 0.39 µg/mL (≈ 0.999 µM) | 25 µg/mL (≈ 64 µM) | 6.25 µg/mL (≈ 16 µM) | 0.39 µg/mL (≈ 0.999 µM) | 0.2 µg/mL (≈ 0.512 µM) | 0.39 µg/mL (≈ 0.999 µM) | 6.25 µg/mL (≈ 16 µM) | 1.56 µg/mL (≈ 4 µM) | 3.13 µg/mL (≈ 8.02 µM) | 3.13 µg/mL (≈ 8.02 µM) | 3.13 µg/mL (≈ 8.02 µM) | 3.13 µg/mL (≈ 8.02 µM) |  | 
CN1CCOc2cc(-c3cc(=O)c(C(=O)O)cn3-c3ccc(O)cc3F)ccc21 | 0.2 µg/mL (≈ 0.505 µM) | 12.5 µg/mL (≈ 31.5 µM) | 3.13 µg/mL (≈ 7.9 µM) | ≤ 0.05 µg/mL | 0.39 µg/mL (≈ 0.984 µM) |  | 3.13 µg/mL (≈ 7.9 µM) | 0.1 µg/mL (≈ 0.252 µM) | 6.25 µg/mL (≈ 15.8 µM) | 3.13 µg/mL (≈ 7.9 µM) | 0.39 µg/mL (≈ 0.984 µM) | 0.39 µg/mL (≈ 0.984 µM) | 0.39 µg/mL (≈ 0.984 µM) |  | 0.39 µg/mL (≈ 0.984 µM) | 0.78 µg/mL (≈ 1.97 µM) |  |  | 0.78 µg/mL (≈ 1.97 µM) | 1.56 µg/mL (≈ 3.94 µM) | MIC ([6]; GN76, 20 h): 3.13 µg/mL (≈ 7.9 µM); MIC ([7]; GN918, 20 h): 3.13 µg/mL (≈ 7.9 µM); MIC [9, 26]: 6.25 µg/mL (≈ 15.8 µM)
O=C(O)c1cn(-c2ccc(F)cc2)c(-c2ccc(Br)s2)cc1=O |  | 25 µg/mL (≈ 63.4 µM) | 25 µg/mL (≈ 63.4 µM) | 0.39 µg/mL (≈ 0.989 µM) |  |  | 12.5 µg/mL (≈ 31.7 µM) | 1.56 µg/mL (≈ 3.96 µM) | 50 µg/mL (≈ 127 µM) | 12.5 µg/mL (≈ 31.7 µM) | 0.39 µg/mL (≈ 0.989 µM) | 1.56 µg/mL (≈ 3.96 µM) | 1.56 µg/mL (≈ 3.96 µM) |  | 3.13 µg/mL (≈ 7.94 µM) | 6.25 µg/mL (≈ 15.9 µM) |  | 100 µg/mL (≈ 254 µM) |  | 6.25 µg/mL (≈ 15.9 µM) | MIC [1]: 3.13 µg/mL (≈ 7.94 µM); MIC ([6]; GN76, 20 h): 3.13 µg/mL (≈ 7.94 µM); MIC [8]: 3.13 µg/mL (≈ 7.94 µM); MIC [9, 26]: 25 µg/mL (≈ 63.4 µM); MIC [10]: 12.5 µg/mL (≈ 31.7 µM)
O=C(O)c1cn(-c2ccc(O)cc2)c(-c2ccc3cccnc3c2)cc1=O |  |  | 12.5 µg/mL (≈ 34.9 µM) | ≤ 0.05 µg/mL | 0.78 µg/mL (≈ 2.18 µM) | 12.5 µg/mL (≈ 34.9 µM) |  | 0.39 µg/mL (≈ 1.09 µM) | 25 µg/mL (≈ 69.8 µM) | 6.25 µg/mL (≈ 17.4 µM) | 0.39 µg/mL (≈ 1.09 µM) | 25 µg/mL (≈ 69.8 µM) |  | 6.25 µg/mL (≈ 17.4 µM) | 1.56 µg/mL (≈ 4.35 µM) | 0.39 µg/mL (≈ 1.09 µM) | 3.13 µg/mL (≈ 8.73 µM) | 3.13 µg/mL (≈ 8.73 µM) | 3.13 µg/mL (≈ 8.73 µM) |  | MIC [1]: 1.56 µg/mL (≈ 4.35 µM); MIC ([2]; GN3379, 20 h): 12.5 µg/mL (≈ 34.9 µM); MIC [11, 28]: 25 µg/mL (≈ 69.8 µM); MIC [17]: 1.56 µg/mL (≈ 4.35 µM)
Cc1cc(O)ccc1-n1cc(C(=O)O)c(=O)cc1-c1ccc2[nH]ccc2c1 | 0.1 µg/mL (≈ 0.277 µM) | 25 µg/mL (≈ 69.4 µM) | 1.56 µg/mL (≈ 4.33 µM) | ≤ 0.05 µg/mL | 0.39 µg/mL (≈ 1.08 µM) |  | 1.56 µg/mL (≈ 4.33 µM) | 0.1 µg/mL (≈ 0.277 µM) | 6.25 µg/mL (≈ 17.3 µM) | 0.78 µg/mL (≈ 2.16 µM) | 0.2 µg/mL (≈ 0.555 µM) | 3.13 µg/mL (≈ 8.69 µM) | 0.1 µg/mL (≈ 0.277 µM) | 1.56 µg/mL (≈ 4.33 µM) | 0.2 µg/mL (≈ 0.555 µM) | 0.39 µg/mL (≈ 1.08 µM) | 0.78 µg/mL (≈ 2.16 µM) | 3.13 µg/mL (≈ 8.69 µM) | 0.78 µg/mL (≈ 2.16 µM) |  | MIC [9, 26]: 6.25 µg/mL (≈ 17.3 µM)
O=C(O)c1cn(-c2ccc(O)cc2)c(-c2ccc3ccccc3c2)cc1=O | ≤ 0.05 µg/mL | 3.13 µg/mL (≈ 8.76 µM) | 1.56 µg/mL (≈ 4.37 µM) | ≤ 0.05 µg/mL | 0.2 µg/mL (≈ 0.56 µM) | 1.56 µg/mL (≈ 4.37 µM) |  | ≤ 0.05 µg/mL | 6.25 µg/mL (≈ 17.5 µM) | 1.56 µg/mL (≈ 4.37 µM) | 0.1 µg/mL (≈ 0.28 µM) | 0.2 µg/mL (≈ 0.56 µM) | ≤ 0.05 µg/mL |  | 0.39 µg/mL (≈ 1.09 µM) | 0.39 µg/mL (≈ 1.09 µM) | 0.39 µg/mL (≈ 1.09 µM) | 6.25 µg/mL (≈ 17.5 µM) | 0.39 µg/mL (≈ 1.09 µM) | 0.39 µg/mL (≈ 1.09 µM) | MIC [11, 28]: 0.78 µg/mL (≈ 2.18 µM)
O=C(O)c1cn(-c2ccc(O)cc2)c(-c2ccc(-c3ccccc3)cc2)cc1=O | ≤ 0.05 µg/mL | 100 µg/mL (≈ 261 µM) | 12.5 µg/mL (≈ 32.6 µM) | ≤ 0.05 µg/mL | 0.39 µg/mL (≈ 1.02 µM) | 12.5 µg/mL (≈ 32.6 µM) |  | 0.1 µg/mL (≈ 0.261 µM) | 25 µg/mL (≈ 65.2 µM) | 12.5 µg/mL (≈ 32.6 µM) | 0.2 µg/mL (≈ 0.522 µM) | 0.39 µg/mL (≈ 1.02 µM) | ≤ 0.05 µg/mL |  | 0.39 µg/mL (≈ 1.02 µM) | 0.78 µg/mL (≈ 2.03 µM) | 0.78 µg/mL (≈ 2.03 µM) | 1.56 µg/mL (≈ 4.07 µM) | 3.13 µg/mL (≈ 8.16 µM) | 1.56 µg/mL (≈ 4.07 µM) | MIC [11, 28]: 3.13 µg/mL (≈ 8.16 µM)
